Results: patent publication US20040115209A1, “Compound targeted for specific cells with reduced systemic toxicity” (priority 2000, published 2004)

Tests used:
NIH 3T3 cells = settings: mouse fibroblasts
Protocol: (§1) Competition of Doxorubicin-α-IR3 cytotoxicity was done by adding a 10-fold molar excess of α-IR3 antibody. The survival profile of the cells was measured with the MTT assay 72 hr after plating.

KB cells = assay: MTT cytotoxicity of Doxorubicin-mAb α-IR3, KB cells; type: cell-based; settings: Homo sapiens, 72 h, 3 days, n = 3
Protocol: as §1

KB-V cells = assay: MTT cytotoxicity of Doxorubicin-mAb α-IR3, KB-V cells (p-glycoprotein resistant); type: cell-based, human
Protocol: as §1

NWT-b3 cells = settings: mouse, 72 h
Protocol: as §1

B104 cells [1] = assay: MTT cytotoxicity of paclitaxel•MC192, B104 cells; type: cell-based, rat; settings: addition of 40 nM MC192
Protocol: (§2) The survival profile of the cells was measured with the MTT assay 72 hr after plating.

B104 cells [2] = type: in vivo; settings: ˜3.5 nM
Protocol: Nude mice (seven weeks old, female) were used to test the effect of paclitaxel or conjugates in tumor progression. Single cell suspensions of B104 cells (10^5/mouse) were injected subcutaneously in the left flank near the rib cage. Tumor growth was monitored daily. […] Mice were then randomized and treatments were initiated in four groups (n=5 in each group). […] All treatments were done by a total of five injections every two days (for a total of ten days). All injections were done IP on the right side to prevent direct contact of the agents to the tumor growing subcutaneously, and to assure that systemic circulation of the drugs was achieved. Measurements of tumor volume were taken using calipers, every day post treatment for a total of 25 days.
The timeline was: day −14 injection of tumors subcutaneously, days −10, −8, −6, −4, −2 injection of drugs or controls, days 0-25 measurement of tumor growth daily.
Statistical significance of differences in tumor growth among the different treatment groups was determined by the student t test using SYSTAT 7.0 software. P value is significant when it is <0.05.

NIH-3T3 cells = assay: MTT cytotoxicity of paclitaxel•MC192, cells that do not express p75; type: cell-based, mouse
Protocol: as §2

B104 cells [3] = assay: Kinetics of paclitaxel cytotoxicity: single bolus versus constant exposure (MTT); type: cell-based, rat
Protocol: It is likely that a single bolus of paclitaxel•antibody conjugate would be delivered because affected cells would not synthesize additional target receptor. Therefore we tested whether a single bolus of paclitaxel would be an effective cytotoxic agent. Cells were exposed to the indicated concentration of paclitaxel for 30 minutes at 4° C. Then, cells were plated in a 96-well plate (Falcon); this group represents treatment with paclitaxel present in a constant manner. The remaining cells were washed free of excess paclitaxel prior to plating; this group represents a single exposure to paclitaxel. […] Optical density readings of MTT were done in an EIA Plate Reader model 2550 (Bio-Rad) at 595 nm.

4-3.6 cells = assay: In vitro survival assay in serum free media (MTT), 4-3.6 cells; type: cell-based, rat; settings: ˜48 hrs, zVAD 20 nM, conjugate 20 nM VAD equivalent, 1 nM 5C3
Protocol: 4-3.6 cells are placed in serum free media (SFM, PFHM-II, GIBCO, Toronto), where they undergo apoptosis (serum-withdrawal model).
Cells were then cultured for ˜48 hrs. Cell growth/survival was calculated relative to 5% serum (standardized to 100%).

COc1cccc2c1C(=O)c1c(O)c3c(c(O)c1C2=O)C[C@@](O)(C(=O)CO)C[C@@H]3O[C@H]1C[C@H](N)[C@H](O)[C@H](C)O1 [Doxorubicin]
cytotoxicity on cells that do not express IGF-IR (NIH 3T3 cells): dose-dependent cytotoxicity | IC50 (KB cells): 60 ± 2 nM | IC50 (KB-V cells; Homo sapiens, KBV, 72 h, KB-V cells, 3 days, MTT, n = 3): > 320 nM | cytotoxicity on multidrug resistant cells (KB-V cells; KB-V compared to sensitive KB cells, with or without Verapamil): inactive on KB-V cells unless Verapamil was added | cytotoxicity under ligand competition (NWT-b3 cells): same cytotoxicity whether excess of mlg or α-IR3 was present or not

CC(=O)O[C@H]1C(=O)[C@@]2(C)[C@H]([C@H](OC(=O)c3ccccc3)[C@]3(O)C[C@H](OC(=O)[C@H](O)[C@@H](NC(=O)c4ccccc4)c4ccccc4)C(C)=C1C3(C)C)[C@]1(OC(C)=O)CO[C@@H]1C[C@@H]2O [paclitaxel]
cytotoxicity under ligand competition (B104 cells [1]): same cytotoxicity whether or not 40 nM of mouse IgG or 40 nM of MC192 antibody were added | efficacy in vivo at the dose effective for the conjugate (B104 cells [2]): not effective at this dose | cytotoxicity on cells that do not express p75 (NIH-3T3 cells): dose-dependent cytotoxicity | cytotoxic effect of a single exposure versus constant exposure (B104 cells [3]; 20 nM, after 72 and 96 hours of culture): significantly less effective than constant exposure | cytotoxic effect, single exposure versus constant presence (B104 cells [3]; 30 minutes at 4° C. exposure, several concentrations, MTT 48, 72, 96 hr): generally the same whether the drug is present in the culture throughout or after a single exposure

benzoic acid-Valine-Alanine-Aspartic acid-O-methyl-fluoromethylketone peptide [zVAD]
4-3.6 Cell Survival (MTT, % of serum control) (4-3.6 cells): −2 ± 3 % of serum control
